Laboratory results reported in paper PMC12250129, “Exploring the Therapeutic Potential of ^177Lu-PSMA-617 in a Mouse Model of Prostate Cancer Bone Metastases” (International Journal of Molecular Sciences, 2025).

System: bone metastasis of LNCaP/Luc prostate cancer
Assay: Therapeutic efficacy in mice with bone metastasis of LNCaP/Luc prostate cancer
Format: in vivo, mouse
Conditions: for median survival time: tail vein, day 0, control 26 days; for lifespan increase: vs control
Description: Therapeutic response monitoring was performed using bioluminescence imaging on days 3, 7, 15, and 30. […] The survival curves presented in Figure 6C further highlight the therapeutic effect. The median survival time for the control group (receiving normal saline) was 26 days, whereas mice treated with 1mCi (37 MBq) and 3mCi (111 MBq) of ^177Lu-PSMA-617 had median survival times of 34 days (p = 0.01) and 40 days (p = 0.02), respectively.
The mice were intratibially injected with LNCaP/Luc cells. After 45 days of tumor-implantation, the mice were assigned to three groups, including the saline control (n = 6), a low dose of ^177Lu-PSMA-617 (n = 8), and a high dose of ^177Lu-PSMA-617 (n = 9). The mice were administered via the tail vein with equivalent to 1mCi (37 MBq) and 3mCi (111 MBq) of ^177Lu-PSMA-617 on day 0. Body weight changes were measured during observation days. The death of mice was recorded for the survival curve by the Kaplan–Meier method. A humane endpoint was defined as a decrease in body weight of 20% or more compared with the body weight measured on the day of tumor inoculation. The survival rate of all groups was analyzed by the log-rank test, and p < 0.05 was considered significant difference. The median survival time was presented in efficacy studies. The median survival time was calculated as the smallest survival time for which the survivor function is less than or equal to 0.5. The therapeutic responses were monitored by bioluminescence imaging during observation days. The BNL/Luc tumor of mice was imaged and measured using the IVIS Imaging system and Living Imaging software (Xenogen, Alameda, CA, USA; available at https://www.perkinelmer.com) on days 3, 7, 15, and 30.

For `O=C([O-])CN1CCN(CC(=O)[O-])CCN(CC(=O)NCC2CCC(C(=O)N[C@@H](Cc3ccc4ccccc4c3)C(=O)NCCCC[C@H](NC(=O)N[C@@H](CCC(=O)O)C(=O)O)C(=O)O)CC2)CCN(CC(=O)[O-])CC1.[177Lu+3]` (some centres unmarked) [^177Lu-PSMA-617], the median survival time (1mCi (37 MBq), p = 0.01) was 34 days, the lifespan increase (1mCi (37 MBq)) was 30.7% and the median survival time (3mCi (111 MBq), p = 0.02) was 40 days. The lifespan increase (3mCi (111 MBq)) was 53.8% and the “bioluminescence signal intensity vs controls” value (days 3, 7, 15 and 30 after treatment) was “significantly lower signal intensities”.
